Laboratory results reported in patent US9187472B2 (AbbVie Inc., priority 2012, dated 2015).
pIC50: −log10 of the molar value.

Columns and labels:
[1] = molecular target: NAMPT (human, recombinant, C-terminally His-tagged) (Homo sapiens, UniProt P43490); experiment: Time-Resolved Fluorescence Resonance Energy Transfer (TR-FRET) Binding Assay of NAMPT; conditions: without substrates; 6.8 nM NAMPT, 200 nM probe, 3 hours equilibration
Description: Determination of the utility of compounds having Formula (I) as binders to and inhibitors of NAMPT was performed using Time-Resolved Fluorescence Resonance Energy Transfer (TR-FRET) binding assays.
Time-Resolved Fluorescence Resonance Energy Transfer (TR-FRET) Binding Assay of NAMPT
Test compounds were serially diluted (typically 11 half log dilutions) in neat DMSO to 50× final concentrations prior to dilution with assay buffer (50 mM HEPES (NaOH), pH 7.5, 100 mM NaCl, 10 mM MgCl2, 1 mM DTT, 1% Glycerol) to 3× and 6% DMSO. Six μL were transferred to 384-well low-volume plates (Owens Corning #3673). To this, […] of a 1.5× solution containing enzyme, probe and antibody were added. Final concentrations in the 18 μL, reactions were 1× assay buffer, 2% DMSO, 6.8 nM NAMPT (human, recombinant, C-terminally His-tagged), 200 nM probe (a potent nicotinamide-competitive inhibitor conjugated to Oregon Green 488) and 1 nM Tb-anti-His antibody (Invitrogen # PV5895). Reactions were equilibrated at room temperature for 3 hours prior to reading on an Envision multi-label plate reader (Perkin Elmer; Ex=337 nm, Em=520 and 495 nm). Time-resolved FRET ratios (Em520/Em495) were normalized to controls, plotted as a function of compound concentration and fit with the four-parameter logistic equation to determine IC50s.

PC3 cells = experiment: NAMPT Cell Proliferation Assay; type: cell-based; conditions: Homo sapiens, PC-3, 120 h, 5 days incubation, cell viability by Cell Titer Glo
Summary of the method: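 Seed PC3 at 500 cells/well (RPMI, 10% HI-FBS), attach overnight; add compound, 10-fold series 10 μM → 1×10^−5 μM; incubate 5 d, 37° C/5% CO2; luminescent viability readout; fit % inhibition sigmoidally for IC50.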

NAMPT = NAMPT (Homo sapiens, UniProt P43490); experiment: TR-FRET Binding Assay of NAMPT with PRPP; conditions: with 200 μM PRPP and 2.5 mM ATP; 2 nM NAMPT, 2 nM probe, 16 hours equilibration
Description: Time-Resolved Fluorescence Resonance Energy Transfer (TR-FRET) Binding Assay of NAMPT with PRPP
Compound handling and data processing were identical to the assay in the absence of substrates (above). Final concentrations were 1× assay buffer, 2% DMSO, 2 nM NAMPT, 2 nM probe, 1 nM Tb-anti-His antibody (Invitrogen # PV5895), 200 μM PRPP and 2.5 mM ATP. Reactions were equilibrated for 16 hours prior to measurement to allow for potential enzymatic modification of test compounds.

Chain of NAMPT (P43490 whole entry): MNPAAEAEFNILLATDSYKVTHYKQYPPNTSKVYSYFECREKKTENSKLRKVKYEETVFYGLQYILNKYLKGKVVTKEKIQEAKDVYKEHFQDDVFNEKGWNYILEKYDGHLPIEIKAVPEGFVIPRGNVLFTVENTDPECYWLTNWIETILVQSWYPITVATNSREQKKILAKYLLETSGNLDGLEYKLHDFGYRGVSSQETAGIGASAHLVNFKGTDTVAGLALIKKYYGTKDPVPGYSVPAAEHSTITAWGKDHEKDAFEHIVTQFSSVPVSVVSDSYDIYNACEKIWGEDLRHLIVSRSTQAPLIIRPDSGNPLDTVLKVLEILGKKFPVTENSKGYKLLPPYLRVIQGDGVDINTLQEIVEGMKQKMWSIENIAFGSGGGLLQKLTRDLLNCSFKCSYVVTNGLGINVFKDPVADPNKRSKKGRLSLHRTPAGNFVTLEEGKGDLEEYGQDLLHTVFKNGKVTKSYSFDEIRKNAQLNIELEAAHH
Chain of NAMPT (human, recombinant, C-terminally His-tagged) (P43490 whole entry): as above

Structure (SMILES) | pIC50 [1] | pIC50 (PC3 cells) | pIC50 (NAMPT)
O=C(CC1CCOC1)Nc1ccc(NC(=O)Nc2ccc3nccn3c2)cc1 (stereo not drawn) [Example 26, N-{4-[(imidazo[1,2-a]pyridin-6-ylcarbamoyl)amino]phenyl}-2-(tetrahydrofuran-3-yl)acetamide] | 6.68 | 6.58 | 8.96
CC(=O)Nc1ccc(NC(=O)Nc2ccc3nccn3c2)cc1 [Example 27] | 6.12 | 5.12 | 9.18
O=C(Nc1ccc(C2=CCN(C(=O)CC3CCOC3)CC2)cc1)Nc1ccc2nccn2c1 (stereo not drawn) [Example 28, 1-imidazo[1,2-a]pyridin-6-yl-3-{4-[1-(tetrahydrofuran-3-ylacetyl)-1,2,3,6-tetrahydropyridin-4-yl]phenyl}urea] | 6.82 | 7.85 | 9.72
CC(C)(O)C(=O)N1CC=C(c2ccc(NC(=O)Nc3ccc4nccn4c3)cc2)CC1 [Example 29, 1-{4-[1-(2-hydroxy-2-methylpropanoyl)-1,2,3,6-tetrahydropyridin-4-yl]phenyl}-3-imidazo[1,2-a]pyridin-6-ylurea] | 6.77 | 7.36 | 9.63
O=C(Nc1ccc(C2=CCN(C(=O)CN3CCOCC3)CC2)cc1)Nc1ccc2nccn2c1 [Example 30, 1-imidazo[1,2-a]pyridin-6-yl-3-{4-[1-(morpholin-4-ylacetyl)-1,2,3,6-tetrahydropyridin-4-yl]phenyl}urea] | 5.93 | 7.42 | 9.11
CCOCC(=O)N1CC=C(c2ccc(NC(=O)Nc3ccc4nccn4c3)cc2)CC1 [Example 31, 1-{4-[1-(ethoxyacetyl)-1,2,3,6-tetrahydropyridin-4-yl]phenyl}-3-imidazo[1,2-a]pyridin-6-ylurea] | 6.13 | 6.97 | 9.51
COCCOCC(=O)N1CC=C(c2ccc(NC(=O)Nc3ccc4nccn4c3)cc2)CC1 [Example 32, 1-imidazo[1,2-a]pyridin-6-yl-3-(4-{1-[(2-methoxyethoxy)acetyl]-1,2,3,6-tetrahydropyridin-4-yl}phenyl)urea] | 6.04 | 6.55 | 9.77
O=C(Nc1ccc(C2=CCN(C(=O)C3CCCO3)CC2)cc1)Nc1ccc2nccn2c1 (stereo not drawn) [Example 33, 1-imidazo[1,2-a]pyridin-6-yl-3-{4-[1-(tetrahydrofuran-2-ylcarbonyl)-1,2,3,6-tetrahydropyridin-4-yl]phenyl}urea] | 6.43 | 7.17 | 9.26
O=C(Nc1ccc(C2=CCN(C(=O)C3CCOCC3)CC2)cc1)Nc1ccc2nccn2c1 [Example 34, 1-imidazo[1,2-a]pyridin-6-yl-3-{4-[1-(tetrahydro-2H-pyran-4-ylcarbonyl)-1,2,3,6-tetrahydropyridin-4-yl]phenyl}urea] | 6.68 | 7.42 | 9.42
O=C(Nc1ccc(C2=CCN(C(=O)C3COCCO3)CC2)cc1)Nc1ccc2nccn2c1 (stereo not drawn) [Example 35, 1-{4-[1-(1,4-dioxan-2-ylcarbonyl)-1,2,3,6-tetrahydropyridin-4-yl]phenyl}-3-imidazo[1,2-a]pyridin-6-ylurea] | 6.41 | 7.23 | 9.10
CN1CCC(C(=O)N2CC=C(c3ccc(NC(=O)Nc4ccc5nccn5c4)cc3)CC2)CC1 [Example 36, 1-imidazo[1,2-a]pyridin-6-yl-3-(4-{1-[(1-methylpiperidin-4-yl)carbonyl]-1,2,3,6-tetrahydropyridin-4-yl}phenyl)urea] | 6.45 | 7.29 | 9.35
O=C(Nc1ccc(C2=CCN(C(=O)C3CCS(=O)(=O)CC3)CC2)cc1)Nc1ccc2nccn2c1 [Example 37, 1-(4-{1-[(1,1-dioxidotetrahydro-2H-thiopyran-4-yl)carbonyl]-1,2,3,6-tetrahydropyridin-4-yl}phenyl)-3-imidazo[1,2-a]pyridin-6-ylurea] | 6.89 | 7.46 | 9.51
CC(C)C(=O)N1CC=C(c2ccc(NC(=O)Nc3ccc4nccn4c3)cc2)CC1 [Example 38, 1-imidazo[1,2-a]pyridin-6-yl-3-{4-[1-(2-methylpropanoyl)-1,2,3,6-tetrahydropyridin-4-yl]phenyl}urea] | 6.61 | 7.18 | 9.58
CCOCC(=O)Nc1ccc(NC(=O)Nc2ccc3nccn3c2)cc1 [Example 39, 2-ethoxy-N-{4-[(imidazo[1,2-a]pyridin-6-ylcarbamoyl)amino]phenyl}acetamide] | 6.09 | 5.14 | 9.59
O=C(CC1CCOCC1)Nc1ccc(NC(=O)Nc2ccc3nccn3c2)cc1 [Example 40] | 7.39 | 7.15 | 9.66
O=C(CN1CCOCC1)Nc1ccc(NC(=O)Nc2ccc3nccn3c2)cc1 [Example 41] | 6.53 | 6.86 | 8.94
COCCOCC(=O)Nc1ccc(NC(=O)Nc2ccc3nccn3c2)cc1 [Example 42, N-{4-[(imidazo[1,2-a]pyridin-6-ylcarbamoyl)amino]phenyl}-2-(2-methoxyethoxy)acetamide] | 6.16 | 5.80 | 9.42
COCC(C)C(=O)Nc1ccc(NC(=O)Nc2ccc3nccn3c2)cc1 (stereo not drawn) [Example 43] | 5.36 | 5.13 | 9.77
CCCC(=O)Nc1ccc(NC(=O)Nc2ccc3nccn3c2)cc1 [Example 44] | 6.40 | 5.80 | 9.30
O=C(CCC(F)(F)F)Nc1ccc(NC(=O)Nc2ccc3nccn3c2)cc1 [Example 45, 4,4,4-trifluoro-N-{4-[(imidazo[1,2-a]pyridin-6-ylcarbamoyl)amino]phenyl}butanamide] | 6.06 | 5.68 | 8.92
O=C(Nc1ccc(NC(=O)C2CCOCC2)cc1)Nc1ccc2nccn2c1 [Example 46] | 6.11 | 5.20 | 9.50
CC(C)CCC(=O)Nc1ccc(NC(=O)Nc2ccc3nccn3c2)cc1 [Example 47, N-{4-[(imidazo[1,2-a]pyridin-6-ylcarbamoyl)amino]phenyl}-4-methylpentanamide] | 7.24 | 7.19 | 9.21
CN1CCC(C(=O)Nc2ccc(NC(=O)Nc3ccc4nccn4c3)cc2)CC1 [Example 48] | < 5.00 | 5.27 | 9.77
O=C(Nc1ccc(NC(=O)C2CCS(=O)(=O)CC2)cc1)Nc1ccc2nccn2c1 [Example 49] | 6.35 | 5.15 | 9.50
O=C(Nc1ccc(NC(=O)C2COCCO2)cc1)Nc1ccc2nccn2c1 (stereo not drawn) [Example 50] | 5.79 | 5.21 | 9.09
CC(C)Cn1cc(-c2ccc(NC(=O)Nc3ccc4nccn4c3)cc2)cn1 [Example 51, 1-imidazo[1,2-a]pyridin-6-yl-3-{4-[1-(2-methylpropyl)-1H-pyrazol-4-yl]phenyl}urea] | 6.58 | 7.08 | 9.28
O=C(CC1CCCC1)Nc1ccc(C(=O)NCc2ccc3nccn3c2)cc1 [Example 52, 4-[(cyclopentylacetyl)amino]-N-(imidazo[1,2-a]pyridin-6-ylmethyl)benzamide] | 7.73 | 8.39 | 8.24
